Assay results published in patent EP3818828A1 (priority 2019, dated 2021).
Converted amounts (≈) assume the structure as drawn. Where two headings read alike, the source gives them in different places.

Legend:
[1] = tested on: Leveillula taurica; test: In-vivo greenhouse control of pepper powdery mildew
Experimental: (§1) 5.61 g of 3-(3',4'-methylenedioxy phenyl)-piperidine acrylate was weighed and dissolved in 25 g of absolute ethyl alcohol, then 6 g of emulsifier 0203B was added, and mixed uniformly with stirring to get 14% of 3-(3',4'-methylenedioxy phenyl)-piperidine acrylate EC.
Pepper seedling (Variety: Bell pepper) was carried out in a greenhouse, and the seedlings were transplanted into pots, 3 for each pot. Sick leaves of powdery mildew (Leveillula taurica) were harvested form peppers (Longjiao No. 2) in a solar greenhouse in Jingyuan County, Baiyin City, and formulated into a spore suspension of powdery mildew. Both sides of the pepper leaves were sprayed evenly with a small hand-held sprayer and inoculated. The first application was started at the early onset of powdery mildew. 14% of 3-(3',4'-methylenedioxy phenyl)-piperidine acrylate EC was diluted at four concentrations of 1.00, 0.667, 0.50 and 0.40 mg/mL (active ingredients); the control agent, 12.5% of myclobutanil EC, was diluted at a concentration of 0.063 mg/mL (active ingredients); additionally clear water was used as the control. The instrument for application is a small hand-held sprayer. Both sides of the leaves were sprayed evenly so that the leaves were wetted by the liquor without loss. Applications were conducted every 7 days consecutively for 3 times. 10 days after the third application, the disease extent of powdery mildew in the upper, middle and lower 3 leaves of each plant was investigated, to calculate the disease index and the control effect.

[2] = tested on: damping-off (P. aphanidermatum, P.capsici); test: In-vivo greenhouse control of damping-off of eggplants; conditions: Eggplant; sick soil; 0.80 mg/mL (active ingredients)
Experimental: 3.88 g of 3-(3',4'-methylenedioxy phenyl)-N-n-propyl acrylamide was weighed and dissolved in 25 g of absolute ethyl alcohol, then 6 g of emulsifier 0203B was added, and mixed uniformly with stirring to get 10% of 3-(3',4'-methylenedioxy phenyl)-N-n-propyl acrylamide EC.
as §1
Sick soil of damping-off (P. aphanidermatum, P.capsici) was collected from the fields of tomatoes, eggplants and peppers in a solar greenhouse, and mixed evenly in equal proportion. Tomatoes (Variety: Song Tian Fen Yang Yang, 100 grains), eggplants (Variety: Lanza No. 2 F1 long eggplant, 100 grains), pepper (Longjiao No. 2 F1, 100 grains) were seeded quantitatively with the sick soil in pots (diameter: 15 cm) in a greenhouse, additionally with sterile vermiculite as the control (each 100 grains for determining the germination rate). […] Mortality of seedlings was investigated after the seedlings had grown 2 true leaves, and the control effect of each treatment on damping-off was calculated. […]

[3] = tested on: Colletotrichum capsici; test: Toxicity determination (EC50) on mycelial growth, growth rate method; format: cell-based; conditions: for EC50: median inhibition concentration
[4] = tested on: Botrytis cinerea; test: as above; format: cell-based
[5] = tested on: F. graminearum; test: microbe, parasite or virus in culture; format: cell-based; conditions: for EC50: median inhibition concentration
[6] = tested on: cucumber powdery mildew; test: In-vivo greenhouse determination of systemic action (root-irrigation) on cucumber powdery mildew
Experimental: as §1
Cucumber (Variety: Tianjin Mici) was sown in big pots (with a diameter of 30 cm) in a greenhouse, remaining 3 plants for each pot after emergence. The first root-irrigation was started at the early onset of cucumber powdery mildew (first appearance of spots on the true leaves). 14% of 3-(3',4'-methylenedioxy phenyl)-piperidine acrylate EC was diluted at three concentrations of 1.00, 0.667 and 0.50 mg/mL (active ingredients), 500 mL liquor for each pot. The root-irrigations were conducted every 7 days consecutively for 3 times. 10 days after the third root-irrigation, the number of sick leaves at each grade of cucumber powdery mildew was investigated for the whole plant following the grading standard of 9 grades, to calculate the disease index and the control effect.

[7] = EC50 of chlorothalonil / EC50 of agent
[8] = EC50 of procymidone / EC50 of agent

O=C(/C=C/c1ccc2c(c1)OCO2)N1CCCCC1 [3-(3',4'-methylenedioxyphenyl)-piperidine acrylate]
Control Effect ([1]; 0.50 mg/mL): 75.56% | Control Effect ([1]; 0.667 mg/mL): 84.56% | Control Effect ([1]; 1.00 mg/mL): 100% | Control Effect [2]: 63.47% | EC50 ([3]; Colletotrichum truncatum, read-out: EC50): 130 µg/mL (≈ 501 µM) | Relative Toxicity (Compared to Chlorothalonil) [3, 7]: 3.23 | Relative Toxicity (Compared to Procymidone) [3, 8]: 4.13 | EC50 ([3]; listed as 66#): 125.3 µg/mL (≈ 483 µM) | Relative Toxicity (Compared to Chlorothalonil) [4, 7]: 0.84 | Relative Toxicity (Compared to Procymidone) [4, 8]: 0.37 | EC50 ([4]; median inhibition concentration): 212 µg/mL (≈ 816 µM) | Relative Toxicity (Compared to Chlorothalonil) [5, 7]: 1.82 | Relative Toxicity (Compared to Procymidone) [5, 8]: 6.83 | EC50 ([5]; Fusarium graminearum): 120 µg/mL (≈ 463 µM) | EC50 ([5]; listed as 66#): 124.5 µg/mL (≈ 480 µM) | systemic activity ([6]; cucumber powdery mildew, uptake by roots and delivery upwards): no systemic activity | effects of root-irrigations on cucumber powdery mildew ([6]; root-irrigations at 1.00, 0.667 and 0.50 mg/mL at the early onset): no effects
